Series [1] addresses Estrogen receptor beta (Mus musculus) (UniProt O08537). Description: Activation of ERbeta in mouse calvarial osteoblasts assessed as induction of osteoblast differentiation by measuring increase in ALP activity at 1 pM using PNPP as substrate after 48 hrs by colorimetric method.
For series [2], the system named is Calvarial osteoblast. The experiment in a line: Cytotoxicity against mouse calvarial osteoblasts at 0.000001 to 1 uM after 48 hrs by MTT assay. It is filed as cell-based. (Tetrazolium dyes change colour on reduction, which living cells bring about.)
The target in series [3] is T1, Estrogen receptor (Mus musculus) (UniProt P19785).
T1 sequence (whole entry): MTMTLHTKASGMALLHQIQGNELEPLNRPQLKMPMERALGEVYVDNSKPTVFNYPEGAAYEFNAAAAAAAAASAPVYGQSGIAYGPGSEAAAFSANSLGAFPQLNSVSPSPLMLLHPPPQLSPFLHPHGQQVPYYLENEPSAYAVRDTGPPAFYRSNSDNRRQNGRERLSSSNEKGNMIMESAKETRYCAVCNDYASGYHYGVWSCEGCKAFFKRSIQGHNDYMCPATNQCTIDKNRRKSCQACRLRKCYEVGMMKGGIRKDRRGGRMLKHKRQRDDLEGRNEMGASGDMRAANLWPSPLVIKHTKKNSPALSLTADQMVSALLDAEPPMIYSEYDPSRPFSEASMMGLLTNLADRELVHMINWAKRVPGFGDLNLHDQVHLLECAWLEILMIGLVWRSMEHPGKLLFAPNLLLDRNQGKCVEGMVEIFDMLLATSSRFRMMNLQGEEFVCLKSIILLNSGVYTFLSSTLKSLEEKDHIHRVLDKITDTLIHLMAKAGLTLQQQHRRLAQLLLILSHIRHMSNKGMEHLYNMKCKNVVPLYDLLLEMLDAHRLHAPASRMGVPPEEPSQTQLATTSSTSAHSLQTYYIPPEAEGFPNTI
Description: Up regulation of ERalpha expression in mouse calvarial osteoblasts at 1 to 100 pM after 48 hrs by Western blot analysis.

Series [4] has as its system Calvarial osteoblast. The experiment in a line: Induction of osteoblast differentiation in mouse calvarial osteoblasts assessed as increase in osterix mRNA expression at 1 to 100 pM after 48 hrs by SYBR green1 staining based RT-qPCR analysis. Format: functional, cell-based. (Quantitative PCR measures a nucleic acid by following its amplification.)
Series [5] deals with Calvarial osteoblast. The experiment in a line: Induction of osteoblast differentiation in mouse calvarial osteoblasts assessed as increase in BMP2 mRNA expression at 1 to 100 pM after 48 hrs by SYBR green1 staining based RT-qPCR analysis. Format: functional, cell-based.
For series [6], the target named is Estrogen receptor beta (Mus musculus) (UniProt O08537). Description: Activation of ERbeta in mouse calvarial osteoblasts assessed as induction of mineralization by measuring increase in calcium nodules at 1 pM supplemented with fresh medium containing compounds every 48 hrs for 18 days measured on day 18 by alizarin red-S staining based colorimetric method relative to control.

The target is the same in series [7]. Description: Up regulation of ERbeta expression in mouse calvarial osteoblasts at 1 to 100 pM after 48 hrs by Western blot analysis. In general terms: In western blotting, separated proteins are transferred to a membrane and probed.
In series [8] the test system is Calvarial osteoblast. The experiment in a line: Induction of osteoblast differentiation in mouse calvarial osteoblasts assessed as increase in RUNX2 mRNA expression at 1 to 100 pM after 48 hrs by SYBR green1 staining based RT-qPCR analysis. It is filed as functional, cell-based.

The source made the active and inactive calls. No cut-off for these calls is given here.

Our source for the Activity values is ChEMBL document CHEMBL4190185 (Medchemcomm, 2016).

Sequence of Estrogen receptor beta (Mus musculus) (O08537 whole entry): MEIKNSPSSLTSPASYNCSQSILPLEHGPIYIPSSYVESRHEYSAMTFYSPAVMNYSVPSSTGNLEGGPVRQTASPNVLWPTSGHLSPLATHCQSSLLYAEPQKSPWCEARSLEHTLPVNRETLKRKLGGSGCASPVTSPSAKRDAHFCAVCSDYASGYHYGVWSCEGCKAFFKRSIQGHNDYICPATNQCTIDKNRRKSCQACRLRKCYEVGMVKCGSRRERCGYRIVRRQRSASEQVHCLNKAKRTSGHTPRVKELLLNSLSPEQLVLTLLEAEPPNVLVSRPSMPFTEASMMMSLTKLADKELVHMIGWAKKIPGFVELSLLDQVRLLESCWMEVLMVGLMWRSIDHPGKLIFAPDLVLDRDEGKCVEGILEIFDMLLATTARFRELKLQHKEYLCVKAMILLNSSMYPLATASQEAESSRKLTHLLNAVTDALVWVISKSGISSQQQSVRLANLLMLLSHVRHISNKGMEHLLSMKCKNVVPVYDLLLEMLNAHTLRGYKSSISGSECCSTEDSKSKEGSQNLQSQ

For the molecule `CCC(O)(CC)CCCCOc1ccc2c(c1)OCC(c1ccc(OC)cc1)C2` (centres undefined), the result in series [1] was Active. The Activity result in the series with Calvarial osteoblast [2] is “Non-Toxic”.
For `COc1ccc(C2COc3cc(OCCCCCC(C)(C)O)ccc3C2)cc1` (centres undefined), in that order: “Active” and “Non-Toxic”.
Consider `COc1ccc(C2COc3cc(OCCCCC(C)(C)O)ccc3C2)cc1` (centres undefined), for which the outcome (in series [3]; with Calvarial osteoblast [4]; in the series on Calvarial osteoblast [5]; in series [1]; in series [7]; with Calvarial osteoblast [8]) was Active. The Activity in series [6] is 20%; in the series with Calvarial osteoblast [2] it was “Non-Toxic”.
As to `CCOC(=O)CCCCCOc1ccc2c(c1)OCC(c1ccc(OC)cc1)C2` (centres undefined), in series [1], the result was Active. The Activity entry in the series with Calvarial osteoblast [2] is “Non-Toxic”.
